What is called IC50 is the concentration that inhibits the measured activity by half.

SMILES strings stand for the structures.

For the assay, the target named is Cdk4/CyclinD1 (Homo sapiens (Human), UniProt P11802). In words: Cdk4 kinase inhibition assay with recombinant Cdk4/CyclinD1, Rb substrate, [33P]-ATP filter plate. The format is biochemical. The following applies: 25 μM ATP, read-out: Cdk 4 IC50. A digest of the protocol: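 Recombinant Cdk4/CyclinD1 or Cdk6/CyclinD3 phosphorylated Rb protein with [33P]-ATP for 1 h at room temperature. Protein was TCA-precipitated on filter plates and bound radioactivity counted. IC50 by nonlinear regression.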
Cdk4/CyclinD1, sequence (P11802 whole entry): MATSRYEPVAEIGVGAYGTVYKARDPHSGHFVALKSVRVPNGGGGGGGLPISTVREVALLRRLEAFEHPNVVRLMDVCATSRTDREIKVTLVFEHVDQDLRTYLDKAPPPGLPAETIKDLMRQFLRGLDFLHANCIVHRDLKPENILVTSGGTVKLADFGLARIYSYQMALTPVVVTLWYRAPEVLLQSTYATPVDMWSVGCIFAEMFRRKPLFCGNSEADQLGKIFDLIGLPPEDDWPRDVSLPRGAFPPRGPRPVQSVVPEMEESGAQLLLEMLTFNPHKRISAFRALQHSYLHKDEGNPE
Cdk4/CyclinD1, sequence (P24385 whole entry partner): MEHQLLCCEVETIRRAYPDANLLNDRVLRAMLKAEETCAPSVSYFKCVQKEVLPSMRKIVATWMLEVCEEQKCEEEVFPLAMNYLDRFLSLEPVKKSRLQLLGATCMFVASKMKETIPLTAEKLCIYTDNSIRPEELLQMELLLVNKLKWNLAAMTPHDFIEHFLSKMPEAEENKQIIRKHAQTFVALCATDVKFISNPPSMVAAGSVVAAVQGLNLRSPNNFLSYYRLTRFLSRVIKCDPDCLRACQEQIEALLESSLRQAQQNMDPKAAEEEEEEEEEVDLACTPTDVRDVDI
Turning to `CCN(CC)C1CCN(c2ccc(Nc3ncc4c5ccnc(O)c5n(C5CCCC5)c4n3)nc2)CC1` [Example 284, 9-Cyclopentyl-2-((5-(4-(diethylamino)-1-piperidinyl)-2-pyridinyl)amino)-9H-pyrido[4′,3′:4,5]pyrrolo[2,3-d]pyrimidin-8-ol], the IC50 is 5 nM.
The value for `CCN(CC)C1CCN(c2ccc(Nc3ncc4c5ccnc(OC)c5n(C5CCCC5)c4n3)nc2)CC1` [Example 285, 9-cyclopentyl-N-(5-(4-(diethylamino)-1-piperidinyl)-2-pyridinyl)-8-methoxy-9H-pyrido[4′,3′:4,5]pyrrolo[2,3-d]pyrimidin-2-amine] was 2.6 nM; that for `CN(C)C1CCN(c2ccc(Nc3ncc4c5ccncc5n([C@H]5CC[C@H](O)CC5)c4n3)nn2)CC1` [Example 287, Trans-4-(2-((6-(4-(dimethylamino)-1-piperidinyl)-3-pyridazinyl)amino)-9H-pyrido[4′,3′:4,5]pyrrolo[2,3-d]pyrimidin-9-yl)cyclohexanol] was 123 nM; that for `CN(CCO)c1ccc(Nc2ncc3c4ccncc4n(C4CCCC4)c3n2)nn1` [Example 291] was 3.9 nM.
The value for `COCCn1c2cnccc2c2cnc(Nc3ccc(N4CCC(N(C)C)CC4)nn3)nc21` [Example 315] was 1380 nM.
For `CC[C@H](C)n1c2cnccc2c2cnc(Nc3ccc(N4CCC(N(C)C)CC4)cn3)nc21` [Example 326], the IC50 was 620 nM.
The value for `CC[C@H](C)n1c2cnccc2c2cnc(Nc3ccc(N4CCC(N(C)C)CC4)nn3)nc21` [Example 327] was 630 nM; that for `CC[C@H](C)n1c2cnccc2c2cnc(Nc3ccc(N4CCNC(C)(C)C4)cn3)nc21` [Example 328] was 51 nM.
Regarding `CC[C@H](C)n1c2cnccc2c2cnc(Nc3ccc(N4CCN[C@@H](C)C4)cn3)nc21` [Example 329], the IC50 amounted to 500 nM.
Regarding `CC[C@H](C)n1c2cnccc2c2cnc(Nc3ccc(N4CCNCC4)cn3)nc21` [Example 330], the IC50 stood at 248 nM.
The result for `CC[C@H](C)n1c2cnccc2c2cnc(Nc3ccc(N4CCNCC4)nn3)nc21` [Example 331] reads 390 nM.
The result for `CC[C@H](C)n1c2cnccc2c2cnc(Nc3ccc(N4CCNC(C)(C)C4)nn3)nc21` [Example 332] reads 16 nM; that for `CC[C@H](C)n1c2cnccc2c2cnc(Nc3ccc(N4CCN[C@@H](C)C4)nn3)nc21` [Example 333], 300 nM; that for `CC[C@H](C)n1c2cnccc2c2cnc(Nc3ccc(N4CCC(NC)CC4)nn3)nc21` [Example 334], 800 nM.
In the case of `CC[C@H](C)n1c2cnccc2c2cnc(Nc3ccc(N4CCC(NC)CC4)cn3)nc21` [Example 335], the 50% inhibitory concentration (IC50) amounted to 1630 nM.
The result for `CC[C@H](C)n1c2cnccc2c2cnc(Nc3ccc(N4CC[C@@H](O)C4)cn3)nc21` [Example 336] reads 2 nM; that for `CC[C@H](C)n1c2cnccc2c2cnc(Nc3ccc(N4CC[C@@H](O)C4)nn3)nc21` [Example 337], 22 nM; that for `CC1(C)CN(c2ccc(Nc3ncc4c5ccncc5n([C@@H]5CCNC5)c4n3)nc2)CCN1` [Example 338], 302 nM.
As for `C[C@H]1CN(c2ccc(Nc3ncc4c5ccncc5n([C@@H]5CCNC5)c4n3)nc2)CCN1` [Example 339], the concentration for half-maximal inhibition (IC50) worked out at 300 nM.
Consider `CNC1CCN(c2ccc(Nc3ncc4c5ccncc5n([C@@H]5CCNC5)c4n3)nc2)CC1` [Example 340], for which the concentration for half-maximal inhibition (IC50) is 370 nM.
The result for `C[C@H]1CN(c2ccc(Nc3ncc4c5ccncc5n([C@H]5CCC[C@H]5O)c4n3)nc2)CCN1` [Example 359] reads 71 nM.
Consider `CC1(C)CN(c2ccc(Nc3ncc4c5ccncc5n([C@H]5CCC[C@H]5O)c4n3)nc2)CCN1` [Example 360], for which the IC50 stood at 66 nM.
The result for `O[C@@H]1CCC[C@@H]1n1c2cnccc2c2cnc(Nc3ccc(N4CCNCC4)nn3)nc21` [Example 362] reads 162 nM; that for `C[C@H]1CN(c2ccc(Nc3ncc4c5ccncc5n([C@H]5CCC[C@H]5O)c4n3)nn2)CCN1` [Example 363], 211 nM; that for `CNC1CCN(c2ccc(Nc3ncc4c5ccncc5n([C@H]5CCC[C@H]5O)c4n3)nn2)CC1` [Example 364], 258 nM.
The value for `CC1(C)CN(c2ccc(Nc3ncc4c5ccncc5n([C@H]5CCC[C@H]5O)c4n3)nn2)CCN1` [Example 365] was 159 nM; that for `O[C@@H]1CCN(c2ccc(Nc3ncc4c5ccncc5n([C@H]5CCC[C@H]5O)c4n3)nn2)C1` [Example 366] was 330 nM.
The result for `CNC1CCN(c2ccc(Nc3ncc4c5ccncc5n([C@@H](C)CO)c4n3)nc2)CC1` [Example 367] reads 350 nM; that for `C[C@@H](CO)n1c2cnccc2c2cnc(Nc3ccc(N4CC[C@@H](O)C4)cn3)nc21` [Example 368], 284 nM; that for `C[C@@H](CO)n1c2cnccc2c2cnc(Nc3ccc(N4CCC(N(C)C)CC4)cn3)nc21` [Example 370], 161 nM.
In the case of `O[C@@H]1CCN(c2ccc(Nc3ncc4c5ccncc5n([C@H]5CCC[C@H]5O)c4n3)nc2)C1` [Example 371], the IC50 was 123 nM.
For `C[C@@H](CO)n1c2cnccc2c2cnc(Nc3ccc(N4CCC(N(C)C)CC4)nn3)nc21` [Example 372], the half-inhibitory concentration (IC50) was determined as 129 nM.
Regarding `CNC1CCN(c2ccc(Nc3ncc4c5ccncc5n([C@@H](C)CO)c4n3)nn2)CC1` [Example 373], the IC50 was determined as 45 nM.
The value for `C[C@@H](CO)n1c2cnccc2c2cnc(Nc3ccc(N4CC[C@@H](O)C4)nn3)nc21` [Example 374] was 86 nM.
The value for `C[C@H](CO)n1c2cnccc2c2cnc(Nc3ccc(N4CCNCC4)cn3)nc21` [Example 375] was 40 nM; that for `C[C@H](CO)n1c2cnccc2c2cnc(Nc3ccc(N4CCC(N(C)C)CC4)cn3)nc21` [Example 376] was 50 nM.
The value for `C[C@H]1CN(c2ccc(Nc3ncc4c5ccncc5n([C@@H](C)CO)c4n3)nn2)CCN1` [Example 377] was 73 nM; that for `C[C@@H](CO)n1c2cnccc2c2cnc(Nc3ccc(N4CCNC(C)(C)C4)cn3)nc21` [Example 378] was 85 nM.
Regarding `C[C@@H](CO)n1c2cnccc2c2cnc(Nc3ccc(N4CCNC(C)(C)C4)nn3)nc21` [Example 379], the IC50 worked out at 11 nM.
In the case of `CNC1CCN(c2ccc(Nc3ncc4c5ccncc5n([C@H](C)CO)c4n3)nc2)CC1` [Example 380], the IC50 came out at 261 nM.
The result for `C[C@H](CO)n1c2cnccc2c2cnc(Nc3ccc(N4CCN[C@@H](C)C4)cn3)nc21` [Example 381] reads 2000 nM.
In the case of `C[C@H](CO)n1c2cnccc2c2cnc(Nc3ccc(N4CC[C@@H](O)C4)cn3)nc21` [Example 382], the IC50 was determined as 152 nM.
For the compound `C[C@H](CO)n1c2cnccc2c2cnc(Nc3ccc(N4CCNC(C)(C)C4)cn3)nc21` [Example 383], the 50% inhibitory concentration (IC50) came out at 62 nM.
On to `C[C@H](CO)n1c2cnccc2c2cnc(Nc3ccc(N4CCNCC4)nn3)nc21` [Example 384], for which the concentration for half-maximal inhibition (IC50) came out at 143 nM.
The value for `C[C@H](CO)n1c2cnccc2c2cnc(Nc3ccc(N4CCC(N(C)C)CC4)nn3)nc21` [Example 385] was 216 nM; that for `CNC1CCN(c2ccc(Nc3ncc4c5ccncc5n([C@H](C)CO)c4n3)nn2)CC1` [Example 386] was 53 nM; that for `C[C@H](CO)n1c2cnccc2c2cnc(Nc3ccc(N4CCN[C@@H](C)C4)nn3)nc21` [Example 387] was 227 nM.
The result for `C[C@H](CO)n1c2cnccc2c2cnc(Nc3ccc(N4CCNC(C)(C)C4)nn3)nc21` [Example 388] reads 218 nM; that for `C[C@H](CO)n1c2cnccc2c2cnc(Nc3ccc(N4CC[C@@H](O)C4)nn3)nc21` [Example 389], 166 nM.
Take `CN(C)C1CCN(c2ccc(Nc3ncc4c5ccncc5n([C@@H]5CCOC5)c4n3)nn2)CC1` [Example 391]: the IC50 amounted to 184 nM.
The result for `O[C@@H]1CCN(c2ccc(Nc3ncc4c5ccncc5n([C@@H]5CCOC5)c4n3)nn2)C1` [Example 392] reads 219 nM; that for `CNC1CCN(c2ccc(Nc3ncc4c5ccncc5n([C@H]5CCC[C@H]5O)c4n3)nc2)CC1` [Example 393], 300 nM; that for `CN(C)C1CCN(c2ccc(Nc3ncc4c5ccncc5n([C@H]5CCOC5)c4n3)nc2)CC1` [Example 394], 1190 nM.
Turning to `CN(C)C1CCN(c2ccc(Nc3ncc4c5ccncc5n([C@H]5CCOC5)c4n3)nn2)CC1` [Example 395], the half-maximal inhibitory concentration (IC50) is 300 nM.
As to `O[C@@H]1CCN(c2ccc(Nc3ncc4c5ccncc5n([C@H]5CCOC5)c4n3)nc2)C1` [Example 396], the IC50 was found to be 238 nM.
The result for `O[C@@H]1CCN(c2ccc(Nc3ncc4c5ccncc5n([C@H]5CCOC5)c4n3)nn2)C1` [Example 397] reads 340 nM; that for `O[C@H]1CCC[C@@H]1n1c2cnccc2c2cnc(Nc3ccc(N4CCNCC4)cn3)nc21` [Example 398], 330 nM; that for `CN(C)C1CCN(c2ccc(Nc3ncc4c5ccncc5n([C@H]5CCC[C@@H]5O)c4n3)nc2)CC1` [Example 399], 57 nM.
Turning to `CNC1CCN(c2ccc(Nc3ncc4c5ccncc5n([C@H]5CCC[C@@H]5O)c4n3)nc2)CC1` [Example 400], the IC50 was found to be 301 nM.
The value for `C[C@H]1CN(c2ccc(Nc3ncc4c5ccncc5n([C@H]5CCC[C@@H]5O)c4n3)nc2)CCN1` [Example 401] was 170 nM.
Consider `CC1(C)CN(c2ccc(Nc3ncc4c5ccncc5n([C@H]5CCC[C@@H]5O)c4n3)nc2)CCN1` [Example 402], for which the IC50 stood at 175 nM.
Consider `O[C@@H]1CCN(c2ccc(Nc3ncc4c5ccncc5n([C@H]5CCC[C@@H]5O)c4n3)nc2)C1` [Example 403], for which the IC50 stood at 350 nM.
On to `O[C@H]1CCC[C@@H]1n1c2cnccc2c2cnc(Nc3ccc(N4CCNCC4)nn3)nc21` [Example 404], for which the IC50 was determined as 820 nM.
The value for `CN(C)C1CCN(c2ccc(Nc3ncc4c5ccncc5n([C@H]5CCC[C@@H]5O)c4n3)nn2)CC1` [Example 405] was 750 nM; that for `CNC1CCN(c2ccc(Nc3ncc4c5ccncc5n([C@H]5CCC[C@@H]5O)c4n3)nn2)CC1` [Example 406] was 360 nM.

These data come from US8841312B2, “Fused pyridine, pyrimidine and triazine compounds as cell cycle inhibitors” (Amgen Inc., priority 2007, dated 2014).
